What all share (format): biochemical
One assay addresses T1, PPK2^s.e (Staphylococcus epidermidis, UniProt Q5HL47).
T1 construct: gene SERP2140
T1 sequence (Q5HL47 1-474): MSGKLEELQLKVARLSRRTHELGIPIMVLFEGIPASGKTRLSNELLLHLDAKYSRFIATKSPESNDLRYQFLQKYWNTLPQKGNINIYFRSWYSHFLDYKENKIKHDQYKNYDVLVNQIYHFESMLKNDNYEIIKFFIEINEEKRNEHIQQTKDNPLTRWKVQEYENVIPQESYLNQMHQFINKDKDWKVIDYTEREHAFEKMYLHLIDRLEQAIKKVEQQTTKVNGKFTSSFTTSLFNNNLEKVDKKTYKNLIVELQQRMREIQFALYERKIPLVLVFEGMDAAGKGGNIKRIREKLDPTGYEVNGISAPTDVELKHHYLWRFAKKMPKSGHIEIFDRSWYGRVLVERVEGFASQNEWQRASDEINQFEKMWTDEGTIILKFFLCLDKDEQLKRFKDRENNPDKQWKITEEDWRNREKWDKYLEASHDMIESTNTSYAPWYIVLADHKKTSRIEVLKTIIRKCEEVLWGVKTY
The assay is described as follows: polyphosphate kinase assay, HPLC. The settings on record: polyP6, Mg2+, pH 7.5, 35 °C.

A further assay concerns the target T2, PPK2C^p.a (Pseudomonas aeruginosa, UniProt Q9HYF1).
T2 construct: gene PA3455
T2 sequence (Q9HYF1 1-496): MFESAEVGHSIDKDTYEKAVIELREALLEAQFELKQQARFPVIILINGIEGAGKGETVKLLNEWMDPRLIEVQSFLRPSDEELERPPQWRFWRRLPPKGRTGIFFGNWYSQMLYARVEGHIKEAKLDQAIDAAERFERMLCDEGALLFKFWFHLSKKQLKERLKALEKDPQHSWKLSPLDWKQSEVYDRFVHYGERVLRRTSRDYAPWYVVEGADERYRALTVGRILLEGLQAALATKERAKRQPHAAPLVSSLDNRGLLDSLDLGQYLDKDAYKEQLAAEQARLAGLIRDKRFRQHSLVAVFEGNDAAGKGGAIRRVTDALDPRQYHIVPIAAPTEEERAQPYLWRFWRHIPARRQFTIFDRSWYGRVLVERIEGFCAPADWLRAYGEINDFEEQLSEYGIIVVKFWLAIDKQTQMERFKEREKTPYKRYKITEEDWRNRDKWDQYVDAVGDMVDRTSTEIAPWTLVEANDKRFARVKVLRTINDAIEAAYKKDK
The assay is described as follows: polyphosphate kinase assay, HPLC. The settings on record: polyP6, Mg2+, pH 7.5, 35 °C.

A further assay has as its target T3, PPK2^d.r (Meiothermus ruber, UniProt M9XB82).
T3 construct: gene K649_10090
T3 sequence (M9XB82 1-267): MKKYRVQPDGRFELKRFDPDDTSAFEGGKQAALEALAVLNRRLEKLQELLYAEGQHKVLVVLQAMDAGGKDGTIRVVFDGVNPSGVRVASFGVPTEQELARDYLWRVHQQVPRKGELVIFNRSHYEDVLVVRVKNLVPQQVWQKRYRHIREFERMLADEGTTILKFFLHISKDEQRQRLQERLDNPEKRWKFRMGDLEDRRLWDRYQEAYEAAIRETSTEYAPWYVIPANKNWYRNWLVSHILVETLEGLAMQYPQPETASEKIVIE
Description: polyphosphate kinase assay, HPLC. The settings on record: polyP6, Mg2+, pH 7.5, 35 °C.

Another assay addresses T4, PPK2B^p.a (Pseudomonas aeruginosa, UniProt Q9I154).
T4 construct: gene PA2428
T4 sequence (Q9I154 1-304): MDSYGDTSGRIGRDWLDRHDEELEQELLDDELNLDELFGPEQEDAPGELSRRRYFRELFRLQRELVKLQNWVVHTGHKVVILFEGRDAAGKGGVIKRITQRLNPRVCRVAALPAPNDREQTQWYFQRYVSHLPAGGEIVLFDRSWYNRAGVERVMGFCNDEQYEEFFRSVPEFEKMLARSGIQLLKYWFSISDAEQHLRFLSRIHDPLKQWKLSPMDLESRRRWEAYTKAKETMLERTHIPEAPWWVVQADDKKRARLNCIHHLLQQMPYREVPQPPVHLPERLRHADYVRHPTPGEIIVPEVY
The assay is described as follows: polyphosphate kinase assay, HPLC. The settings on record: polyP6, Mg2+, pH 7.5, 35 °C.

For the next assay, the target named is T5, PPK2A^p.a (Pseudomonas aeruginosa, UniProt Q9I6Z1).
T5 construct: gene ppk2
T5 sequence (Q9I6Z1 2-357): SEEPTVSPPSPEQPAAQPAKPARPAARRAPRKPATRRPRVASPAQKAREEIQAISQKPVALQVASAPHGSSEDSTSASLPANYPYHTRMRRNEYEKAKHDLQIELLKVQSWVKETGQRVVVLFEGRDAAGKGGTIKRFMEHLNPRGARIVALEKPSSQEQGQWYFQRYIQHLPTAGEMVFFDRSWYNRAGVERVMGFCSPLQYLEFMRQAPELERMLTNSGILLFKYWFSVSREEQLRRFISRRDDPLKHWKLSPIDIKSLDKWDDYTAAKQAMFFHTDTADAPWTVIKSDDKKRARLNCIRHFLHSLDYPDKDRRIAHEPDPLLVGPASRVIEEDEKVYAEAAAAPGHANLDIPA
The assay is described as follows: polyphosphate kinase assay, HPLC. To be noted: polyP6, Mg2+, pH 7.5, 35 °C.

The target of another assay is T6, PPK2^r.p (Ruegeria pomeroyi, UniProt Q5LX16).
T6 construct: gene SPO0224
T6 sequence (Q5LX16 1-305): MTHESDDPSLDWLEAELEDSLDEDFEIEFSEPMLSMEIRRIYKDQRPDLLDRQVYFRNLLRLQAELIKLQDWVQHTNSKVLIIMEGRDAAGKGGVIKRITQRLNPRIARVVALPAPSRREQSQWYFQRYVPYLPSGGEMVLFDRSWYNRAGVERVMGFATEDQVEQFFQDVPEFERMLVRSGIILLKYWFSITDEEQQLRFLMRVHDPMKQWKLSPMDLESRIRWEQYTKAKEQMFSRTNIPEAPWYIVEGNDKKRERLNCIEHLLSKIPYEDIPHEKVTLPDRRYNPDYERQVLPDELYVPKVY
The assay is described as follows: polyphosphate kinase assay, HPLC. To be noted: polyP6, Mg2+, pH 7.5, 35 °C.

The subject of assay [1] is T7, chondroitin 4-O-sulfotransferase (C4ST).
T7 construct: gene Chst11; recombinant
The assay is described as follows: sulfotransferase kinetics, HPLC-MS. To be noted: Mg2+, pH 7.5, 35 °C (general assay); acceptor not given. From the text: sulfotransferase kinetics, HPLC-MS on chondroitin 4-O-sulfotransferase (C4ST)

Consider `Nc1ncnc2c1ncn2[C@@H]1O[C@H](COP(=O)(O)OP(=O)(O)O)[C@@H](O)[C@H]1O` [ADP], for which, on PPK2^s.e, the “polyphosphate kinase assay, HPLC” value is “all the other polyphosphate kinases exhibited both AMP and ADP phosphorylase activities”.
On to `Nc1ncnc2c1ncn2[C@@H]1O[C@H](COP(=O)(O)O)[C@@H](O)[C@H]1O` [AMP], for which the “polyphosphate kinase assay, HPLC” value on PPK2C^p.a was “all the other polyphosphate kinases exhibited both AMP and ADP phosphorylase activities”; on PPK2^s.e, “PPK2^s.e (from S. epidermidis) showed the highest enzymatic activity and preferentially utilized AMP”; at PPK2^d.r, “all the other polyphosphate kinases exhibited both AMP and ADP phosphorylase activities”; at PPK2B^p.a, “all the other polyphosphate kinases exhibited both AMP and ADP phosphorylase activities”; at PPK2A^p.a it was “all the other polyphosphate kinases exhibited both AMP and ADP phosphorylase activities”; at PPK2^r.p, “all the other polyphosphate kinases exhibited both AMP and ADP phosphorylase activities”.
As a reminder, the Km is the substrate concentration at which the rate is half of its maximum. On to `Nc1ncnc2c1ncn2[C@@H]1O[C@H](COP(=O)(O)OS(=O)(=O)O)[C@@H](OP(=O)(O)O)[C@H]1O` [PAPS], for which, in assay [1], the Michaelis constant (Km) turned out to be 1.27 ± 0.14 mM.
